This note sets out measurements from patent US10077237B2 (Sanofi, priority 2013, dated 2018).

The assay addresses T1, recombinant human AMPK complex, containing α2β1γ2 (Homo sapiens, UniProt P54646+Q9Y478).
T1 construct: hsAMPKα2-552-His, hsAMPKβ1-2-270 and hsAMPKγ-2-569 respectively; hsAMPKβ1-2-270; hsAMPKγ-2-569; His (C); made in house; host or cells: Spodoptera frugiperda Sf21 (baculovirus)
Briefly: AMPK in vitro activation assay (HTRF). To be noted: for EC50: HTRF, recombinant human α2β1γ2 AMPK, 200 μM ATP, biotinylated ACC-CREBp peptide, repeat determinations on separate lines. The format is biochemical. The protocol:
The recombinant human AMPK complex, containing α2β1γ2 was obtained from baculovirus expression system and generated by cotransfection in Spodoptera frugiperda 21 (Sf21). […] were produced in serum free medium (SF900 II, Invitrogen) for 82 hours after a triple infection at a multiplicity of infection (M.O.I.) of 0.05, 0.06 and 0.045 for hsAMPKα2-552-His, hsAMPKβ1-2-270 and hsAMPKγ-2-569 respectively. Cells were harvested by centrifugation at 1,000×g for 10 minutes at 4° C. and stored at −80° C. The insect cell pellet from 8 liters of culture was resuspended and homogenized in 580 ml of lysis buffer (20 mM Hepes pH 7.5, 150 mM NaCl, 10 mM imidazole, 50 mM NaF, 10% Glycerol and supplemented with EDTA free proteases inhibitor cocktail Roche). The AMPK complex was partially purified using an affinity chromatography under a Ni-NTA Agarose column equilibrated in the lysis buffer and eluted with a gradient (0 to 400 mM) of Imidazol.
A homogeneous time-resolved fluorescence (HTRF) assay was used (Li et al, Anal. Biochem. (2003) 321, 151-156) to identify compounds with stimulating activity for the recombinant human AMPK. Enzyme reaction was performed into a 96-well microtiter plate. First, 20 μL of test compounds in 0.5% DMSO were dispensed followed by 10 μL of protein in 50 mM HEPES buffer at pH 7.0, 100 mM NaCl, 5 mM MgCl2, 0.01% BSA, 0.8 mM DTT. After, 30 min incubation at room temperature, the reaction was initiated by the addition of 10 μL of a solution containing 200 μM of ATP as donor substrate, 2 μM or 0.08 μM of biotinylated ACC-CREBp peptide (PolyPeptide) as acceptor. Plates were then incubated 45 min at 37° C. The reaction was terminated by the addition of 40 μl detection mixture containing Eu^3+ cryptate-conjugated anti-pS^133-CREB antibody and streptavidine-XL665 (CisBio). Plates were further incubated for 2 h30 at room temperature. The fluorescence signal was measured using an Envision multireader (Perkin Elmer). The non-specific signal was obtained without substrates. Potentiation of AMPK activity was expressed as a percent over the basal signal (without compound) from which an EC50 value was determined.
The EC50 of a graded dose response curve represents the concentration of a compound where 50% of its maximal effect is observed.

Setting [1] is: potentiation of AMPK activity as percent over the basal signal (without compound).

T1 sequence (P54646 2-552): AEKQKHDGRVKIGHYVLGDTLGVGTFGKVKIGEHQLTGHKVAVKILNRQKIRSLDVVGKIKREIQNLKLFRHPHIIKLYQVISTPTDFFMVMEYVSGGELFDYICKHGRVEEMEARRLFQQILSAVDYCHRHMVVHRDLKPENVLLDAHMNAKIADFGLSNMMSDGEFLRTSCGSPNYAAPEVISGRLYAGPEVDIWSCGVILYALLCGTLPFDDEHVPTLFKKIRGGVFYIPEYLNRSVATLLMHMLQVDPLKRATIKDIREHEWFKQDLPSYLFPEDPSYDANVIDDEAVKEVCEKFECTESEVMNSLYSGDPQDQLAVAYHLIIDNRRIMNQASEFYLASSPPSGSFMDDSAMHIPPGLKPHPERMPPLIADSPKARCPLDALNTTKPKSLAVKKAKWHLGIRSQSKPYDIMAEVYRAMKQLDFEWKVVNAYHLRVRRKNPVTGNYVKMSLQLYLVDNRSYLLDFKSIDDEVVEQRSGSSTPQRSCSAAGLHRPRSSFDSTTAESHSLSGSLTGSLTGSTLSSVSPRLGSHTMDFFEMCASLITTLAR
T1 sequence (Q9Y478 2-270): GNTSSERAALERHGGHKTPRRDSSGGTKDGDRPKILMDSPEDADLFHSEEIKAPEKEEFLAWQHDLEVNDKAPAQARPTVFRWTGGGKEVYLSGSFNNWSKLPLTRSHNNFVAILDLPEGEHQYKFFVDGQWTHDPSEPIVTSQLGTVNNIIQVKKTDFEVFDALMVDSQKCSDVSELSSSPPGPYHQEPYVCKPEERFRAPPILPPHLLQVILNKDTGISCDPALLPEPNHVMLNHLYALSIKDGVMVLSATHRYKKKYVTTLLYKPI
T1 sequence (Q9UGJ0 2-569 partner limits assumed): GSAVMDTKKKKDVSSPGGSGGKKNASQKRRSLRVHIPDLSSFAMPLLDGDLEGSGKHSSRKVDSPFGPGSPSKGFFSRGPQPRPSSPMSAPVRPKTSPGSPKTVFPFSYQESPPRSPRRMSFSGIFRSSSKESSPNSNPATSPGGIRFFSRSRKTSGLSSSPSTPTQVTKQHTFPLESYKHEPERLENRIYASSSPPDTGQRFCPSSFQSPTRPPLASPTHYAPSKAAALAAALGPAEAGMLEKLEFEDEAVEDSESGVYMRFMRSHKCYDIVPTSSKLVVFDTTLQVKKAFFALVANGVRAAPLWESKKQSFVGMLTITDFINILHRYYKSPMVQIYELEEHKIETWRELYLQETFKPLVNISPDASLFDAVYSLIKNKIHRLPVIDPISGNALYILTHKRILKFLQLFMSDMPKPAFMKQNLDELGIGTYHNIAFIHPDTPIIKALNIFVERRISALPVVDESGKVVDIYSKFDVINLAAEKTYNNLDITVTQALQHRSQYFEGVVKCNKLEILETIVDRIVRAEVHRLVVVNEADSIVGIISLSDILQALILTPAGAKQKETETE

Consider `Cc1cc(C(O)=C2C(=O)Nc3cc(Cl)c(-c4ccc(C#N)cc4)cc32)on1` [Compound 38, 4-{6-Chloro-3-[1-hydroxy-1-(3-methyl-isoxazol-5-yl)-methylidene]-2-oxo-2,3-dihydro-1H-indol-5-yl}-benzonitrile], for which the EC50 was found to be 0.7 µM. For the same molecule, the Emax under setting [1] was found to be 133%.

In the case of `O=C1Nc2cc(Cl)c(-c3ccc(N4CCOCC4)cc3)cc2C1=C(O)c1cccc(C(F)F)c1` [Compound 39, 6-Chloro-3-[1-(3-difluoromethyl-phenyl)-1-hydroxy-methylidene]-5-(4-morpholin-4-yl-phenyl)-1,3-dihydro-indol-2-one], the EC50 is 0.62 µM. Also, under setting [1], the Emax amounted to 168%.

For `O=C1Nc2cc(Cl)c(-c3ccc(N4CCOCC4)cc3)cc2C1=C(O)c1cccc(C(F)(F)F)c1` [Compound 40, 6-Chloro-3-[1-hydroxy-1-(3-trifluoromethyl-phenyl)-methylidene]-5-(4-morpholin-4-yl-phenyl)-1,3-dihydro-indol-2-one], the EC50 turned out to be 0.72 µM. In addition, the Emax under setting [1] came to 121%.

With `O=C1Nc2cc(Cl)c(-c3ccc(N4CCOCC4)cc3)cc2C1=C(O)c1cc(Br)no1` [Compound 41, 3-[1-(3-Bromo-isoxazol-5-yl)-1-hydroxy-methylidene]-6-chloro-5-(4-morpholin-4-yl-phenyl)-1,3-dihydro-indol-2-one], the EC50 stood at 0.003 µM. Under setting [1], the Emax came to 115%.

With `COc1cccc(-c2ccc(-c3cc4c(cc3Cl)NC(=O)C4=C(O)c3cc(C)ns3)cc2)c1O` [Compound 42, 6-Chloro-5-(2′-hydroxy-3′-methoxy-biphenyl-4-yl)-3-[1-hydroxy-1-(3-methyl-isothiazol-5-yl)-methylidene]-1,3-dihydro-indol-2-one], the EC50 stood at 0.027 µM. In addition, the Emax under setting [1] is 132%.

Turning to `O=C1Nc2cc(Cl)c(-c3ccc(N4CCOCC4)cc3)cc2C1=C(O)c1ccccc1` [Compound 43, 6-Chloro-3-[1-hydroxy-1-phenyl-methylidene]-5-(4-morpholin-4-yl-phenyl)-1,3-dihydro-indol-2-one], the EC50 was 0.22 µM. Further, the Emax under setting [1] turned out to be 170%.

For `Cc1cc(C(O)=C2C(=O)Nc3cc(Cl)c(-c4ccc(O)c(F)c4)cc32)on1` [Compound 44, 6-Chloro-5-(3-fluoro-4-hydroxy-phenyl)-3-[1-hydroxy-1-(3-methyl-isoxazol-5-yl)-methylidene]-1,3-dihydro-indol-2-one], the EC50 was 0.47 µM. For the same molecule, the Emax under setting [1] turned out to be 165%.

`Cc1cc(C(O)=C2C(=O)Nc3cc(Cl)c(-c4ccc(C5(CO)CC5)s4)cc32)on1` [Compound 45, 6-Chloro-5-[5-(1-hydroxymethyl-cyclopropyl)-thiophen-2-yl]-3-[1-hydroxy-1-(3-methyl-isoxazol-5-yl)-methylidene]-1,3-dihydro-indol-2-one]: the EC50 was found to be 0.23 µM. Also, the Emax under setting [1] was 155%.

For `O=C1Nc2cc(Cl)c(-c3ccc(C4(CO)CC4)cc3)cc2C1=C(O)c1ccccc1F` [Compound 46, 6-Chloro-3-[1-(2-fluoro-phenyl)-1-hydroxy-methylidene]-5-[4-(1-hydroxymethyl-cyclopropyl)-phenyl]-1,3-dihydro-indol-2-one], the 50% effective concentration (EC50) turned out to be 0.006 µM. The Emax under setting [1] is 95%.

As to `O=C1Nc2cc(Cl)c(-c3ccc(C4(CO)CC4)cc3)cc2C1=C([O-])c1ccccc1F.[Na+]` [Compound 47, 6-Chloro-3-[1-(2-fluoro-phenyl)-1-hydroxy-methylidene]-5-[4-(1-hydroxymethyl-cyclopropyl)-phenyl]-1,3-dihydro-indol-2-one, sodium salt], the EC50 was found to be 0.025 µM. For the same molecule, the “α2β1γ2 AMPK Emax” value under setting [1] was “(94) %”.

Take `Cc1cc(C(O)=C2C(=O)Nc3cc(Cl)c(-c4ccc(C5=CCOCC5)cc4)cc32)sn1` [Compound 48, 6-Chloro-5-[4-(3,6-dihydro-2H-pyran-4-yl)-phenyl]-3-[1-hydroxy-1-(3-methyl-isothiazol-5-yl)-methylidene]-1,3-dihydro-indol-2-one]: the EC50 was determined as 0.095 µM. Moreover, under setting [1], the Emax was determined as 87%.

Regarding `COc1cccc(C(O)=C2C(=O)Nc3cc(Cl)c(-c4ccc(N5CCOCC5)cc4)cc32)c1` [Compound 50, 6-Chloro-3-[1-hydroxy-1-(3-methoxy-phenyl)-methylidene]-5-(4-morpholin-4-yl-phenyl)-1,3-dihydro-indol-2-one], the EC50 worked out at 0.04 µM.

In the case of `COc1cccc(-c2ccc(-c3cc4c(cc3Cl)NC(=O)C4=C(O)c3cnc(C)s3)cc2)c1O` [Compound 51, 6-Chloro-5-(2′-hydroxy-3′-methoxy-biphenyl-4-yl)-3-[1-hydroxy-1-(2-methyl-thiazol-5-yl)-methylidene]-1,3-dihydro-indol-2-one], the EC50 is 0.011 µM. Also, the Emax under setting [1] came to 129%.

On to `O=C1Nc2cc(Cl)c(-c3ccc(C4=CCOCC4)cc3)cc2C1=C(O)c1cccc(F)c1` [Compound 52, 6-Chloro-5-[4-(3,6-dihydro-2H-pyran-4-yl)-phenyl]-3-[1-(3-fluoro-phenyl)-1-hydroxy-methylidene]-1,3-dihydro-indol-2-one], for which the EC50 stood at 0.12 µM. For the same molecule, the Emax under setting [1] was determined as 147%.

On to `Cn1ccc(C(O)=C2C(=O)Nc3cc(Cl)c(-c4ccc(N5CCOCC5)cc4)cc32)n1` [Compound 53, 6-Chloro-3-[1-hydroxy-1-(1-methyl-1H-pyrazol-3-yl)-methylidene]-5-(4-morpholin-4-yl-phenyl)-1,3-dihydro-indol-2-one], for which the EC50 was determined as 1.71 µM. The Emax under setting [1] is 180%.

In the case of `COc1ccc(-c2cc3c(cc2Cl)NC(=O)C3=C(O)c2cc(C)no2)cc1F` [Compound 55, 6-Chloro-5-(3-fluoro-4-methoxy-phenyl)-3-[1-hydroxy-1-(3-methyl-isoxazol-5-yl)-methylidene]-1,3-dihydro-indol-2-one], the EC50 stood at 0.43 µM. Further, the Emax under setting [1] worked out at 174%.

Consider `Cc1cc(C(O)=C2C(=O)Nc3cc(Cl)c(-c4ccc(F)cc4O)cc32)on1` [Compound 56, 6-Chloro-5-(4-fluoro-2-hydroxy-phenyl)-3-[1-hydroxy-1-(3-methyl-isoxazol-5-yl)-methylidene]-1,3-dihydro-indol-2-one], for which the EC50 is 0.15 µM. Under setting [1], the Emax was 189%.

For `Cc1cc(C(O)=C2C(=O)Nc3cc(Cl)c(-c4ccc(OC(F)(F)F)cc4)cc32)on1` [Compound 58, 6-Chloro-3-[1-hydroxy-1-(3-methyl-isoxazol-5-yl)-methylidene]-5-(4-trifluoromethoxy-phenyl)-1,3-dihydro-indol-2-one], the EC50 was 1.4 µM. The Emax under setting [1] turned out to be 212%.

For the molecule `O=C1Nc2cc(Cl)c(-c3ccc(N4CCOCC4)cc3)cc2C1=C(O)c1ccno1` [Compound 59, 6-Chloro-3-[1-hydroxy-1-isoxazol-5-yl-methylidene]-5-(4-morpholin-4-yl-phenyl)-1,3-dihydro-indol-2-one], the EC50 came to 0.029 µM. Moreover, the Emax under setting [1] amounted to 245%.

For `Cc1nocc1C(O)=C1C(=O)Nc2cc(Cl)c(-c3ccc(N4CCOCC4)cc3)cc21` [Compound 60, 6-Chloro-3-[1-hydroxy-1-(3-methyl-isoxazol-4-yl)-methylidene]-5-(4-morpholin-4-yl-phenyl)-1,3-dihydro-indol-2-one], the concentration giving a half-maximal response (EC50) came to 0.77 µM. In addition, the Emax under setting [1] was 298%.

Take `O=C1Nc2cc(Cl)c(-c3ccc(N4CCOCC4)cc3)cc2C1=C(O)c1cc(C2CC2)on1` [Compound 62, 6-Chloro-3-[1-(5-cyclopropyl-isoxazol-3-yl)-1-hydroxy-methylidene]-5-(4-morpholin-4-yl-phenyl)-1,3-dihydro-indol-2-one]: the EC50 was 0.098 µM. Further, the Emax under setting [1] turned out to be 254%.

Turning to `Cc1cc(C(O)=C2C(=O)Nc3cc(Cl)c(-c4ccc(Cl)cc4)cc32)on1` [Compound 63, 6-Chloro-5-(4-chloro-phenyl)-3-[1-hydroxy-1-(3-methyl-isoxazol-5-yl)-methylidene]-1,3-dihydro-indol-2-one], the EC50 is 4.02 µM. For the same molecule, the Emax under setting [1] came out at 134%.

For the molecule `CCc1ccc(-c2cc3c(cc2Cl)NC(=O)C3=C(O)c2cc(C)no2)cc1` [Compound 64, 6-Chloro-5-(4-ethyl-phenyl)-3-[1-hydroxy-1-(3-methyl-isoxazol-5-yl)-methylidene]-1,3-dihydro-indol-2-one], the EC50 was 1.63 µM. Also, under setting [1], the Emax stood at 141%.

The EC50 is the concentration needed to bring the measured effect to its halfway point. What is called Emax is the maximal effect, on the per cent scale that the assay sets.
